# In US20120045501A1, “CONNEXIN ENHANCES CHEMOTHERAPY-INCLUDED APOPTOSIS IN HUMAN CANCER CELLS INHIBITING TUMOR CELL PROLIFERATION” (Northwest Hospital, priority 2001, published 2012):
# Where “and” joins values, the source holds several entries; their conditions need not be identical. Identical values can stand only once.
# Columns and labels:
# [1] = tested on: U251cx43-216 cells; test: MTT cell viability assay
# [2] = tested on: U251cx43-216 cells; test: Clonogenicity (cell survival) assay; format: cell-based, human
# Protocol: (§1) The surviving cell fraction was determined by clonogenicity assay as previously described (Huang et al., J. Cell Biol. 133:211-220 (1996)). Cells were seeded at a density of 500 cells per 60 mm plate and incubated overnight and then treated with drugs; culture was then continued for 3 weeks. Clones were fixed in 4% formaldehyde-PBS and stained with Giemsa solution. Colonies containing more than 50 cells were counted and the fraction of surviving cells was calculated. The results represented the average of three separate experiments.
# (§2) Values at OD 570 reflect the relative number of viable cells.
# [3] = tested on: U251N23 cells; test: Clonogenicity (cell survival) assay; format: cell-based, human
# Protocol: as §1, §2
# [4] = tested on: T98Gcx43-220 cells; test: MTT cell viability assay; format: cell-based; settings: Homo sapiens, 144 h, day 6 after treatment, T98Gcx43-220 (cx43-transfected)
# Protocol: (§3) In vitro viability was determined by the 3-(4,5-dimethylthiazol-2yl)-2,5-diphenyltetrazolium bromide (MTT) colorimetric assay as described in (Huang et al., Cancer Res. 55:5054-5062 (1995)). Cells (1×10^3) were plated in triplicate in 96 well microplates overnight and treated with 5 different concentrations of VP16, Tax and DOX, respectively. […] Absorbance values at 570 nm were plotted as a measure of the relative number of cells. […] Both methods gave the identical results.
# as §2
# [5] = tested on: U251N2 cells; test: MTT cell viability assay; format: cell-based; settings: Homo sapiens, 144 h, day 6 after treatment, U251N2 (control-transfected)
# Protocol: as §3, §2
# [6] = tested on: T98GN28 cells; test: MTT cell viability assay; format: cell-based; settings: Homo sapiens, 144 h, day 6 after treatment, T98GN28 (control-transfected)
# Protocol: as §3, §2
# [7] = tested on: U251cx43-217 cells; test: MTT cell viability assay; format: cell-based; settings: Homo sapiens, 144 h, day 6 after treatment, U251cx43-217 (cx43-transfected)
# Protocol: as §3, §2
# [8] = tested on: U251N23 cells; test: MTT cell viability assay; format: cell-based; settings: Homo sapiens, 144 h, day 6 after treatment, U251N23 (control-transfected)
# Protocol: as §3, §2
# [9] = tested on: U251N23 cells; test: Apoptosis, Hoechst dye stain; format: cell-based, human; settings: U251N23, 1 μM VP16, D4
# Protocol: The assay was performed as we previously described (Huang et al., Cell Death Differ. 5:96-106 (1998)). Briefly, cells were fixed in Carnoy's solution (methanol:glacial […]; 3:1) and stained with 5 μg/ml of bisbenzimide trihydrochloride (Hoechst 33258) for 20 min. The morphology of nuclei was then observed with a Zeiss (Thornwood, N.Y.) photomicroscope II. At least 500 nuclei in each cell line were counted. Experiments were repeated four times.
# (§4) It was next determined whether the enhanced sensitivity to chemotherapeutic agents induced by over-expression of cx43 was associated with the increase of drug-induced apoptosis. Cells collected at various time points post-treatment with 1 μM VP16 were used for apoptosis assays. First, nuclear condensation, chromatin fragmentation and formation of apoptotic bodies were detected by Hoechst 33258 dye staining upon treatment with VP16. […] The results were further confirmed by both 1) TUNEL assay, which detects double- as well as single-stranded DNA breaks during apoptosis by labeling the free 3′-OH termini in an enzymatic reaction (terminal deoxynucleotidyl transferase), and annexin V assay, which detects the exposed phosphotidylserine during apoptosis.
# [10] = tested on: U251cx43-217 cells; test: Cell-cycle distribution by FACScan; format: cell-based, human; settings: U251cx43-217, VP16 1 × 10^−6 M
# Protocol: (§5) Cell-cycle distribution was determined by flow cytometry as described previously (Huang et al., Int. J. Cancer 77:880-886 (1998)). Briefly, cells were seeded in 100 mm plates (5×10^5 per plate), incubated for 24 hours, and then treated with VP16 or vehicle. At days 1 and 2 of treatment, cells were collected, fixed in 70% ethanol and stained with propidium iodine. The DNA content of cells was then analyzed in a fluorescence cell sorter (FACSCalibur, Becton Dickinson, Mountain View, Calif.).
# (§6) The possibility was assessed by treatment of the cells with VP16 for 24 and 48 hours, and cell-cycle distribution was then determined by FACScan. […] Although there was a slight decrease of S phase in cx43-transfected cells compared with control transfected cells at 24 hours after VP16 treatment, it was not statistically significant.
# [11] = tested on: U251cx43-216 cells; test: Cell-cycle distribution by FACScan; format: cell-based, human; settings: U251cx43-216, VP16 1 × 10^−6 M
# Protocol: as §5, §6
# [12] = tested on: U251N23 cells; test: Cell-cycle distribution by FACScan; format: cell-based, human; settings: U251N23, VP16 1 × 10^−6 M
# Protocol: as §5, §6
# [13] = tested on: U251cx43-216 cells; test: Apoptosis, TUNEL assay; format: cell-based, human; settings: U251cx43-216, 1 μM VP16, D2
# Protocol: (§7) Cells (1 to 3×10^5) were seeded onto glass slides in 8-well plates overnight, and then treated with VP16 for 48 hours. Apoptotic cells were then analyzed with a TUNEL-based in situ cell death detection kit (Boehringer-Mannheim, Mannheim, Germany). Fluorescent cells were observed under a fluorescence microscope and viewed as positive cells. The experiment was repeated twice.
# as §4
# [14] = tested on: U251N23 cells; test: Apoptosis, TUNEL assay; format: cell-based, human; settings: U251N23, 1 μM VP16, D2
# Protocol: as §7, §4
# [15] = tested on: U251cx43-216 cells; test: Apoptosis, annexin V assay; format: cell-based, human
# Protocol: (§8) Cells, treated or not VP16, were analyzed with the TACS Annexin V-FITC kit (Trevigen, Gaithersburg, Md.) according to manufacturer's instructions. Apoptosis was detected by the appearance of patches of fluorescence on the cell surface.
# as §4
# [16] = tested on: U251N23 cells; test: Apoptosis, annexin V assay; format: cell-based, human
# Protocol: as §8, §4
smiles,measurement,setting,value
"COc1cc([C@@H]2c3cc4c(cc3[C@@H](O[C@@H]3O[C@@H]5CO[C@@H](C)O[C@H]5[C@H](O)[C@H]3O)[C@H]3COC(=O)[C@H]23)OCO4)cc(OC)c1O [VP16, Etoposide]",IC50,"[1]; Homo sapiens, 144 h",0.39 µM
same,level of toxicity (measured as IC50) in U251cx43-216 relative to U251N23,"[1]; MTT assay, higher in cx43-transfected cells",about 2 fold
same,Colony formation (colonies counted),"[2]; U251cx43-216, 1 × 10^−7, 3 weeks",3 +/− 1
same,Colony formation (colonies counted),"[2]; U251cx43-216, 4 × 10^−6, 3 weeks",2 +/− 1
same,Colony formation (colonies counted),"[2]; U251cx43-216, 4 × 10^−7, 3 weeks",44 +/− 5
same,Colony formation (colonies counted),"[3]; U251N23, 1 × 10^−7, 3 weeks",36 +/− 1
same,Colony formation (colonies counted),"[3]; U251N23, 4 × 10^−6, 3 weeks",9 +/− 1
same,Colony formation (colonies counted),"[3]; U251N23, 4 × 10^−7, 3 weeks",129 +/− 16
same,IC50,[4],0.76 µM
same,IC50,[5],0.8 µM
same,IC50,[6],1.34 µM
same,IC50,[7],0.33 µM
same,IC50,[8],0.86 µM
same,"Percentage of apoptotic cells, Hoechst stain",[9],8.8% and 8.8 +/− 2.4%
same,"Cell cycle distribution, G1 phase",[10]; day 1,12.05%
same,"Cell cycle distribution, G2 phase",[10]; day 1,77.84%
same,"Cell cycle distribution, S phase",[10]; day 1,10.11%
same,"Cell cycle distribution, G1 phase",[10]; day 2,11.39%
same,"Cell cycle distribution, G2 phase",[10]; day 2,88.61%
same,"Cell cycle distribution, S phase",[10]; day 2,0%
same,"Cell cycle distribution, G1 phase",[11]; day 1,10.95%
same,"Cell cycle distribution, G2 phase",[11]; day 1,80.57%
same,"Cell cycle distribution, S phase",[11]; day 1,8.48%
same,"Cell cycle distribution, G1 phase",[11]; day 2,8.44%
same,"Cell cycle distribution, G2 phase",[11]; day 2,90.81%
same,"Cell cycle distribution, S phase",[11]; day 2,0.75%
same,"Cell cycle distribution, G1 phase",[12]; day 1,7.37%
same,"Cell cycle distribution, G2 phase",[12]; day 1,81.49%
same,"Cell cycle distribution, S phase",[12]; day 1,11.14%
same,"Cell cycle distribution, G1 phase",[12]; day 2,5.78%
same,"Cell cycle distribution, G2 phase",[12]; day 2,94.22%
same,"Cell cycle distribution, S phase",[12]; day 2,0%
same,"Percentage of apoptotic cells, TUNNEL assay",[13],13.3 +/− 4.5%
same,"Percentage of apoptotic cells, TUNNEL assay",[14],1.6 +/− 2.3%
same,"Percentage of apoptotic cells, annexin stain","[15]; U251cx43-216, 1 μM VP16, D2",24.5 +/− 0.7%
same,"Percentage of apoptotic cells, annexin stain","[15]; U251cx43-216, 1 μM VP16, D4",42.0 +/− 5.6%
same,"Percentage of apoptotic cells, annexin stain","[16]; U251N23, 1 μM VP16, D2",5.5 +/− 0.7%
same,"Percentage of apoptotic cells, annexin stain","[16]; U251N23, 1 μM VP16, D4",11.5 +/− 2.1%
